± gives the expanded uncertainty stated by the source.
Conditions: 100 kPa, Liquid, Capillary tube (Ostwald / Ubbelohde) method

| SMILES | kinematic viscosity (318.15 K) | kinematic viscosity (323.15 K) | kinematic viscosity (328.15 K) | kinematic viscosity (333.15 K) | kinematic viscosity (338.15 K) | kinematic viscosity (343.15 K) | kinematic viscosity (348.15 K) | kinematic viscosity (353.15 K) | kinematic viscosity (363.15 K) | kinematic viscosity (368.15 K) | kinematic viscosity (373.15 K) | kinematic viscosity (383.15 K) | kinematic viscosity (393.15 K) | kinematic viscosity (403.15 K) | kinematic viscosity (413.15 K) | kinematic viscosity (423.15 K) | kinematic viscosity (358.15 K) | also measured |
| --- | --- | --- | --- | --- | --- | --- | --- | --- | --- | --- | --- | --- | --- | --- | --- | --- | --- | --- |
| CCCCCCCI [1-iodoheptane] | 8.67e-07 ± 1.9e-08 m2/s | 8.12e-07 ± 1.8e-08 m2/s | 7.66e-07 ± 1.7e-08 m2/s | 7.25e-07 ± 1.6e-08 m2/s | 6.87e-07 ± 1.5e-08 m2/s | 6.53e-07 ± 1.5e-08 m2/s | 6.2e-07 ± 1.4e-08 m2/s | 5.91e-07 ± 1.3e-08 m2/s | 5.41e-07 ± 1.2e-08 m2/s | 5.17e-07 ± 1.2e-08 m2/s | 4.98e-07 ± 1.1e-08 m2/s | 4.58e-07 ± 1e-08 m2/s | 4.24e-07 ± 9.6e-09 m2/s | 3.96e-07 ± 8.9e-09 m2/s | 3.7e-07 ± 8.4e-09 m2/s | 3.46e-07 ± 7.8e-09 m2/s |  | kinematic viscosity (296.35 K): 1.18e-06 ± 2.6e-08 m2/s; kinematic viscosity (297.2 K): 1.17e-06 ± 2.6e-08 m2/s; kinematic viscosity (303.5 K): 1.06e-06 ± 2.4e-08 m2/s; kinematic viscosity (313.2 K): 9.24e-07 ± 2.1e-08 m2/s; kinematic viscosity (378.15 K): 4.76e-07 ± 1.1e-08 m2/s |
| CCCCCCCCCCl [1-chlorononane] | 1.21e-06 ± 2.6e-08 m2/s | 1.13e-06 ± 2.4e-08 m2/s | 1.07e-06 ± 2.3e-08 m2/s | 1e-06 ± 2.1e-08 m2/s | 9.48e-07 ± 2e-08 m2/s | 8.97e-07 ± 1.9e-08 m2/s | 8.52e-07 ± 1.8e-08 m2/s | 8.09e-07 ± 1.7e-08 m2/s | 7.37e-07 ± 1.6e-08 m2/s | 7.04e-07 ± 1.5e-08 m2/s | 6.73e-07 ± 1.4e-08 m2/s | 6.19e-07 ± 1.3e-08 m2/s | 5.72e-07 ± 1.2e-08 m2/s | 5.31e-07 ± 1.1e-08 m2/s | 4.94e-07 ± 1e-08 m2/s |  | 7.72e-07 ± 1.6e-08 m2/s | kinematic viscosity (296.21 K): 1.68e-06 ± 3.6e-08 m2/s; kinematic viscosity (300.65 K): 1.57e-06 ± 3.3e-08 m2/s; kinematic viscosity (313.15 K): 1.3e-06 ± 2.8e-08 m2/s |
| CCCCCCI [1-iodohexane] | 7.01e-07 ± 1.5e-08 m2/s | 6.63e-07 ± 1.4e-08 m2/s | 6.26e-07 ± 1.3e-08 m2/s | 5.97e-07 ± 1.3e-08 m2/s | 5.68e-07 ± 1.2e-08 m2/s | 5.39e-07 ± 1.2e-08 m2/s | 5.18e-07 ± 1.1e-08 m2/s |  |  | 4.37e-07 ± 9.3e-09 m2/s |  | 3.91e-07 ± 8.4e-09 m2/s | 3.64e-07 ± 7.8e-09 m2/s |  | 3.19e-07 ± 6.9e-09 m2/s | 3.01e-07 ± 6.5e-09 m2/s | 4.74e-07 ± 1e-08 m2/s | kinematic viscosity (297.25 K): 9.1e-07 ± 1.9e-08 m2/s; kinematic viscosity (298.15 K): 9.03e-07 ± 1.9e-08 m2/s; kinematic viscosity (298.25 K): 9e-07 ± 1.9e-08 m2/s; kinematic viscosity (300.25 K): 8.74e-07 ± 1.9e-08 m2/s; kinematic viscosity (319.15 K): 6.89e-07 ± 1.5e-08 m2/s |

Reference: the NIST ThermoML archive (doi:10.1021/je060158k)
